Columns and labels:
lumbar motoneurons = test: Motoneuron death following limb bud removal; assay type: in vivo, chick
Description: Peptides. Two peptide inhibitors of ICE, Acetyl-Tyr-Val-Ala-Asp-aldehyde (Ac-YVAD-CHO) and Acetyl-Tyr-Val-Ala-Asp-chloromethylketone (Ac-YVAD-CMK) and two control peptide inhibitors, Acetyl-Leu-Leu-Arg-aldehyde (Ac-LLR-CHO; Leupeptin) and n-tosyl-Lys-chloromethyl-ketone (Tos-Lys-CMK) were synthesized by Bachem Biosciences (King of Prussia, Pa.) and shown by thin layer chromatography and HPLC to be greater than 98% pure. […] Methods for administration of peptides to examine effects on naturally occurring motoneuron cell death in vivo. Although cell death of lumbar motoneurons occurs between E6 and E12, the peak period of death (i.e., the greatest number of pyknotic cells) occurs on E8 (Oppenheim et al., J Comp. Neurol. 177:87-112 (1978)). For these experiments, embryos were given a single administration of an agent on E8 0 hr and sacrificed 15 hours later. […] Ac-YVAD-CMK and Tos-Lys-CMK were administered in a solution of DMSO/BSA, whereas Ac-YVAD-CHO and leupeptin (Sigma) were in BSA alone. The solutions (50-100 μl) were dropped onto the highly vascularized chorioallantoic membrane through a window in the shell. The control groups included both DMSO and BSA or vehicle alone. Embryos were killed and staged by the Hamburger-Hamilton series (Hamburger and Hamilton, J. Morph. 88:49-92 (1951)). The thoraco-lumbar spinal cord was dissected, fixed in Camoys or Bouins fixative, processed for paraffin histology, serially sectioned (10-12 μm) and stained with either thionin or hematoxylin and eosin. Pyknotic motoneurons were identified based on criteria previously described (Chu-Wang and Oppenheim, J. Comp. Neurol. 177:33-58 (1978); Clarke and Oppenheim In Methods in Cell Biology Series; Cell Death; eds: Schwartz and Osborne. Academic Press. New York, N.Y. In press.) and were counted in every 10th or 20th section through the entire lumbar enlargement. The total number of pyknotic cells were then estimated by multiplying these values by 10 or 20. All cell counts were performed by individuals blinded with regard to drug treatment of the embryos. Methods for limb bud removal experiments. A unilateral limb bud removal was performed on E2 as described previously (Oppenheim et al., J. Comp. Neurol. 177:87-112 (1978)). Because induced cell death following limb removal begins on E5 (before that there is no difference in the number of motoneurons between the operated or unoperated sides) embryos were given one treatment of Ac-YVAD-CHO (40 μg) or BSA (control) at E5-0 hr and another at E5-12 hours (total peptide administered was 80 μg). Animals were killed at E6-0 hr. Methods were the same as described above except the section thickness was 6-8 μm (see Method for Administration of Peptides, above). Methods for limb bud interdigital regions. Embryos were treated with 100 μg of peptide or vehicle in 50 μl on E6.0 and on E7.0 (total 200 μg) as described above (Chu-Wang and Oppenheim, J. Comp. Neurol. 177:33-58 (1978); Clarke and Oppenheim In Methods in Cell Biology Series; Cell Death; eds: Schwartz and Osborne. Academic Press. New York, N.Y. In press.) and killed at E7.5. The footpads were placed in Bouin's fixative and processed as described above (see Method of Limb Bud Removal, above). Pyknotic cells in all interdigital regions were counted in every 10th section (6-8 μm) of serial transverse sections through the entire footpad.

ICE = target: T1, ICE (Homo sapiens, UniProt P29466); conditions: protease activity of ICE; cited from earlier work
T1 sequence (P29466 120-297): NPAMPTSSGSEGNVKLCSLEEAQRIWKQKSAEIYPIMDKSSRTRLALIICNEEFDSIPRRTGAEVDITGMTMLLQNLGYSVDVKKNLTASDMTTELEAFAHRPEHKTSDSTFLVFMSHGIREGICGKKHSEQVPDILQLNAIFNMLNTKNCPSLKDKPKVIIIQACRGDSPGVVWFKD
T1 sequence (P29466 317-404): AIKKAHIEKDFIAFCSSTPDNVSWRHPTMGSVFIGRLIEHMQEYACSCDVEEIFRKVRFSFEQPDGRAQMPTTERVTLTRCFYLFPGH

[1] = limb bud removal on E2, 40 μg at E5-0 hr and E5-12 hours, mean ±SD
[2] = unoperated side, 40 μg at E5-0 hr and E5-12 hours, mean ±SD

Substance: Acetyl-Tyr-Val-Ala-Asp-aldehyde [Ac-YVAD-CHO]
- survival promoting effect (lumbar motoneurons; following limb bud removal): no survival promoting effect
- Healthy Motoneurons (lumbar) on E6, Ipsilateral (lumbar motoneurons; [1]): 11,109 ± 1592
- Pyknotic Motoneurons (lumbar) on E6, Ipsilateral (lumbar motoneurons; [1]): 317 ± 89
- Healthy Motoneurons (lumbar) on E6, Contralateral (lumbar motoneurons; [2]): 17,914 ± 1733
- Pyknotic Motoneurons (lumbar) on E6, Contralateral (lumbar motoneurons; [2]): 67 ± 13
- Ki (ICE): 0.76 nM

Source: US6939850B2, “Altered human interleukin-1β convertase (ICE), NEDD-2, and C. elegans ced-3 polypeptides and uses therefor” (Massachusetts Institute of Technology, priority 1992, dated 2005)
